Results as given in patent publication US10709719B2, “Substituted bicyclic compounds” (BRISTOL-MYERS SQUIBB COMPANY, priority 2014, dated 2020).
“Also recorded” adds a separate entry of the source.

Tests used:
[1] = tested on: experimental autoimmune encephalomyelitis, clinical score; experiment: Mouse experimental autoimmune encephalomyelitis assay (EAE); assay type: in vivo; conditions: C57Bl/6 mice, prophylactic oral dosing regimen
kidney histology score = experiment: MRL/lpr lupus model: kidney histological analysis; assay type: in vivo; conditions: MRL/lpr mice, p.o. daily
Protocol: (§1) MRL/lpr is a spontaneous model of lupus. Male MRL/lpr mice (Jackson Laboratory) at the age of 12-14 weeks were enrolled for the study (N=12). Mice were dosed p.o. daily with vehicle (18.4% (w/v) hydroxypropyl-b-cyclodextrin in 13.8 mM citric acid) or with Example 681 at 0.06, 0.3, 1.5 mg/kg. Mice were bled every other week for anti-dsDNA antibodies measured by ELISA using pooled serum from diseased MRL/lpr mice as a positive comparator in each assay. The data were expressed in arbitrary units as a ratio of the titer of the test serum to the titer of the pooled MRL/lpr immune serum.
At the end of study, one kidney was collected into 10% neutral buffered formalin and ZincTris fixatives. Fixed tissues were processed into paraffin blocks, sectioned at […], and stained with H&E or PASH. Kidney sections were graded using following criteria: Glomerular Damage: 1. Mesangial matrix thickening, cell proliferation, 2. Crescent formation, cellular deposits/casts in Bowman's space, 3. Cellular infiltration, mononuclear cells in glomerular tufts, 4. Fibrosis of Bowman's capsule. Tubular damage: 1. Infiltration of mononuclear cells, 2. Severity of tubular damage, 3. Protein casts. Tubulo-interstitial damage: 1. Fibrosis, 2. Infiltration of mononuclear cells. Each subcategory was assigned a score from 0-4, with the scores for glomerular indices representing the mean from 20 glomeruli per kidney. […]

anti-dsDNA antibodies = experiment: MRL/lpr lupus model: anti-dsDNA antibody titers (ELISA); assay type: in vivo; conditions: MRL/lpr mice, p.o. daily
Protocol: as §1

S1P3 (EDG3) = S1P3 (EDG3) (Homo sapiens (Human), UniProt Q99500); experiment: Receptor [35S]GTPγS binding assay (S1P3 GTPγS), membranes from EDG3-Gal5-bla HEK293T cells; assay type: biochemical; conditions: GTPγS S1P1 versus S1P3, result in words
Chain of S1P3 (EDG3) (Q99500 whole entry): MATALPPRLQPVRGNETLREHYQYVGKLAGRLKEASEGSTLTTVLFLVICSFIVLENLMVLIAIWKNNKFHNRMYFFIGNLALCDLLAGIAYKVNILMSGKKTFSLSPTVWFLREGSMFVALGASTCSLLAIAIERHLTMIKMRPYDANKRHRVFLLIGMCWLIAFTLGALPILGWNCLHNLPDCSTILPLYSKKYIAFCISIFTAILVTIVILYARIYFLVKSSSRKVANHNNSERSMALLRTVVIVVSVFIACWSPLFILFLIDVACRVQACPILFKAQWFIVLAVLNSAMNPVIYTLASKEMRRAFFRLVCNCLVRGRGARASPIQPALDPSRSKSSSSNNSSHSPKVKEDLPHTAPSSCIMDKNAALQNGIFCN
Protocol: (§2) Compounds were loaded in a 384 Falcon v-bottom plate (0.5 μl/well in a 11 point, 3-fold dilution). Membranes prepared from S1P1/CHO cells or EDG3-Gal5-bla HEK293T cells (EDG3 equivalent S1P3) were added to the compound plate (40 μl/well, final protein 3 μg/well) with MULTIDROP®. [^35S]GTP (1250 Ci/mmol, Perkin Elmer) was diluted in assay buffer: 20 mM HEPES, pH7.5, 10 mM MgCl2, 150 mM NaCl, 1 mM EGTA(ethylene glycol tetraacetic acid), 1 mM DTT (Dithiothreitol), 10 μM GDP, 0.1% fatty acid free BSA, and 10 μg/ml Saponin to 0.4 nM. 40 μl of the [^35S] GTP solution was added to the compound plate with a final concentration of 0.2 nM. The reaction was kept at room temperature for 45 min. At the end of incubation, all the mixtures in the compound plate were transferred to Millipore 384-well FB filter plates via the VELOCITY11® Vprep liquid handler. The filter plate was washed with water 4 times by using the manifold Embla plate washer and dried at 60° C. for 45 min. MicroScint 20 scintillation fluid (30 μl) was added to each well for counting on the Packard TOPCOUNT®.
A smaller value for GTPγS S1P EC50 value indicated greater activity for the compound in the GTPγS S1P binding assay. A larger value for the GTPγS S1P3 EC50 value indicated less activity in the GTPγS S1P3 binding assay. […]

S1P1 = S1P1 (Homo sapiens (Human), UniProt P21453); experiment: Receptor [35S]GTPγS binding assay (S1P1 GTPγS), membranes from S1P1/CHO cells; assay type: biochemical; conditions: result in words
Chain of S1P1 (P21453 whole entry): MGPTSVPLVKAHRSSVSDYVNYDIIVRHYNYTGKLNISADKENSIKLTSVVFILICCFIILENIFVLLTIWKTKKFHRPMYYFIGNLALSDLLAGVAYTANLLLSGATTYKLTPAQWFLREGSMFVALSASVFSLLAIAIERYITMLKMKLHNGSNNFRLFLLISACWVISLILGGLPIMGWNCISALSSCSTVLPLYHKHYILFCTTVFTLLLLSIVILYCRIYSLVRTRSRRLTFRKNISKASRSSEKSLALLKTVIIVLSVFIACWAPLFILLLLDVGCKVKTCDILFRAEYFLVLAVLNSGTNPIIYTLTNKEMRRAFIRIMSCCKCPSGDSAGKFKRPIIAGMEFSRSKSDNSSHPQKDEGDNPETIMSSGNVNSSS
Protocol: as §2, with “[^35S]GTP (1250 Ci/mmol, Perkin Elmer) was diluted in assay buffer: 20 mM HEPES, pH7.5, 10 mM MgCl2, 150 mM NaCl, 1 mM EGTA(ethylene glycol tetraacetic acid), 1 mM DTT (Dithiothreitol), 10 μM GDP, 0.1% fatty acid free BSA, and 10 μg/ml Saponin to 0.4 nM.” left out
A larger value for the GTPγS S1P3 EC50 value indicated less activity in the GTPγS S1P3 binding assay.

[2] = tested on: adjuvant-induced arthritis, hind paw volume; experiment: Rat adjuvant induced arthritis assay (AA); assay type: in vivo, Lewis rats; conditions: Lewis rat, prophylactic oral dosing regimen
Protocol: The rat adjuvant-induced arthritis model is an animal model for human rheumatoid arthritis. Male Lewis rats (150-175 g; Harlan, n=8 treatment group) were immunized at the base of the tail with 100 μl of 10 mg/ml freshly ground Mycobacterium butyricum (Difco Laboratories) in incomplete Freund's adjuvant (sigma). Animals were dosed once daily with the test article (as a solution or suspension in the vehicle) or vehicle alone (polyethylene glycol 300, “PEG300”) starting from the day of immunization. The volumes of their hind paws were measured in a water displacement plethysmometer (Ugo Basile, Italy). The baseline paw measurements were taken before onset of the disease (between day 7 to day 10). The paw measurements were then taken three times a week until the end of the study on day 20 to 21. All procedures involving animals were reviewed and approved by the Institutional Animal Care Use Committee.

[3] = tested on: experimental autoimmune encephalomyelitis, clinical score; experiment: Rat experimental autoimmune encephalomyelitis (EAE); assay type: in vivo, Lewis rats; conditions: Lewis rat, prophylactic oral dosing regimen
Protocol: Female Lewis rats (150-200 g; Harlan) were immunized at the base of the tail with 0.1 ml of a complete Freund's adjuvant emulsion containing 0.5 mg/mL guinea pig myelin basic protein (Genemed Synthesis) and 2 mg/mL Mycobacterium butyricum (Difco). Beginning on Day 7, rats (n=11/group) were scored individually at least 3×/wk according to the following scheme: [table] Average clinical scores were calculated for each treatment group on each day of assessment.

activity as an agonist of S1P1 (S1P1) | Compound | inhibition of disease progression as measured by clinical scores [1] | inhibition of disease progression as measured by reduced paw swelling [2] | other results
– | COc1ccccc1CC[C@@H]1CCc2cc([C@H]3CC[C@](N)(CO)C3)ccc2C1 [Example 681, ((1R,3S)-1-amino-3-((S)-6-(2-methoxyphenethyl)-5,6,7,8-tetrahydronaphthalen-2-yl)cyclopentyl)methanol] | showed inhibition of disease progression; also recorded: inhibit disease progression | – | inhibition of disease progression as measured by kidney histology (kidney histology score): showed inhibition of disease progression; inhibition of disease progression as measured by anti-dsDNA titers (anti-dsDNA antibodies): showed inhibition of disease progression
possessed activity as an agonist of S1P | COCCCCCC1CCc2cc([C@H]3CC[C@](N)(COP(=O)(O)O)C3)ccc2C1 (single isomer, unassigned) [Example 689] | – | – | selectivity over S1P3 (S1P3 (EDG3)): selective over S1P3
– | COCCCCC[C@H]1CCc2cc([C@H]3CC[C@](N)(CO)C3)ccc2C1 [Example 672, ((1R,3S)-1-amino-3-((S)-6-(5-methoxypentyl)-5,6,7,8-tetrahydronaphthalen-2-yl)cyclopentyl)methanol] | – | showed inhibition of disease progression | –
possessed activity as an agonist of S1P1 | COc1ccccc1CCC1CCc2cc([C@H]3CC[C@](N)(COP(=O)(O)O)C3)ccc2C1 (single isomer, unassigned) [Example 697] | – | – | –
– | CCOCCC[C@@H]1CCc2cc([C@H]3CC[C@](N)(CO)C3)ccc2C1 [Example 679, ((1R,3S)-1-amino-3-((S)-6-(3-ethoxypropyl)-5,6,7,8-tetrahydronaphthalen-2-yl)cyclopentyl)methanol] | showed inhibition of disease progression; also recorded: inhibit disease progression | showed inhibition of disease progression | inhibition of disease progression as measured by reduced clinical scores [3]: showed inhibition of disease progression
